The target in this test is T1, choline kinase of Streptococcus pneumoniae (sChoK) (Streptococcus pneumoniae, UniProt Q8DPI4).
T1 construct: gene pck
The test is described as follows: colorimetric choline kinase assay (IC50); PK/LDH kinetics on purified recombinant sChoK (Ki […] +/- […], unit inferred). The test is classed as biochemical.

T1 sequence (Q8DPI4 entry or part of it): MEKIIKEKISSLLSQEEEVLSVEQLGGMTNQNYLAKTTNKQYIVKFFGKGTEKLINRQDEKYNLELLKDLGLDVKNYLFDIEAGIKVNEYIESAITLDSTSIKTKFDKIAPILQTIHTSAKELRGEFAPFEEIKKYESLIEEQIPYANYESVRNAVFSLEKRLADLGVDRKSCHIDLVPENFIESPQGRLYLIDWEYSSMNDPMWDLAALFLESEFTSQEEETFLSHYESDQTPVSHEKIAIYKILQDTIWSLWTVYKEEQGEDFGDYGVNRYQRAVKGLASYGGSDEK

As for `O=c1c(O)c(-c2ccc(O)c(O)c2)oc2cc(O)cc(O)c12` [quercetin], the IC50 came out at 6.18 µM.

Broadly, the IC50 is the concentration needed to halve the response being measured.

Source of the values: paper PMC9495829, “Quercetin Is a Novel Inhibitor of the Choline Kinase of Streptococcus pneumoniae” (Antibiotics, 2022).
